Reference: EP0003212A1, “2.4-Diamino-5-benzylpyrimidines, pharmaceutical compositions containing them and their preparation” (F. HOFFMANN-LA ROCHE & CO. Aktiengesellschaft, priority 1977, dated 1979)
pIC50: −log10 of the molar value. Where two headings read alike, the source gives them in different places.

Experiments:
[1] = biological target: bakterielle Dihydrofolsäurereduktase (DHFR) (Escherichia coli, UniProt P0ABQ4); assay: 50% inhibition of bacterial dihydrofolate reductase; format: biochemical, E. coli
Description: Die Verbindungen der Formel I und ihre Salze sind antibakteriell wirksam. Sie hemmen die bakterielle Dihydrofolsäurereduktase (DHFR) und potenzieren darüberhinaus die Wirkung von Sulfonamiden und anderen Dihydrofolsäuresynthetasehemmern. Beispiele von Sulfonamiden, die durch die erfindungsgemässen Verbindungen potenziert werden, sind solche der Pyrimidin-, Isoxazol-, Oxazol- und Pyrazinreihe wie Sulfadiazin, Sulfadimethoxin, Sulfadoxin, Sulfamerazin, Sulfameter, Sulfamethazin, 6-Methoxy-4-sulfanilamidopyrimidin, Sulfamethoxazol, Sulfisoxazol, 3-Sulfanilamido-4,5-dimethyl-isoxazol, Sulfamoxol und Sulfalen. Quantitativ zeichnen sich die erfindungsgemässen Verbindungen gegenüber bekannten Verbindungen durch niedrigere 50%ige Hemmkonzentrationen der bakteriellen DHFR, beispielsweise bei E. coli, und durch wesentlich höhere Q-Werte (50%ige Hemmung der DHFR bei Ratte/50%ige Hemmung der DHFR bei E. coli), die ein Mass für die Selektivität der Hemmung der bakteriellen DHFR darstellen, sowie durch geringe Toxizität aus.

S. aureus Schoch. = assay: In vitro antibacterial activity (MIC); format: cell-based; settings: strain S. aureus Schoch., unit not given
E. coli 1346 = assay: In vitro antibacterial activity (MIC); format: cell-based; settings: strain E. coli 1346, unit not given
[2] = DHFR of E. coli, read-out: 50% Hemmung der DHFR (M x 10^-8) E. coli

With `CSc1ccc(Cc2cnc(N)nc2N)cc1SC` [R^1=H, R^2=H, R^3=SCH3, R^4=SCH3] the pIC50 [1, 2] was 7.80 and the “Aktivität in vitro (MIC) S. aureus Schoch.” value (S. aureus Schoch.) was 0,7.
With `COc1c(SC)cc(Cc2cnc(N)nc2N)cc1SC` [R^1=H, R^2=SCH3, R^3=OCH3, R^4=SCH3] the pIC50 [1, 2] was 8.14, the “Aktivität in vitro (MIC) S. aureus Schoch.” value (S. aureus Schoch.) was 0,2 and the “Aktivität in vitro (MIC) E. coli 1346” value (E. coli 1346) was 0,7.
In the case of `COCCSc1c(OC)cc(Cc2cnc(N)nc2N)cc1OC` [R^1=H, R^2=OCH3, R^3=SC2H4OCH3, R^4=OCH3], the pIC50 [1, 2] was 7.01 and the “Aktivität in vitro (MIC) S. aureus Schoch.” value (S. aureus Schoch.) was 1,0.
For `COc1cc(Cc2cnc(N)nc2N)cc(SC)c1OC` [R^1=H, R^2=SCH3, R^3=OCH3, R^4=OCH3], the pIC50 [1, 2] was 8.30, the “Aktivität in vitro (MIC) S. aureus Schoch.” value (S. aureus Schoch.) was 0,78 and the “Aktivität in vitro (MIC) E. coli 1346” value (E. coli 1346) was 0,1.
In the case of `CSc1cc(Cc2cnc(N)nc2N)cc(SC)c1SC` [R^1=H, R^2=SCH3, R^3=SCH3, R^4=SCH3], the pIC50 [1, 2] was 8.35, the “Aktivität in vitro (MIC) S. aureus Schoch.” value (S. aureus Schoch.) was 0,2 and the “Aktivität in vitro (MIC) E. coli 1346” value (E. coli 1346) was 0,2.
`COc1c(Br)cc(Cc2cnc(N)nc2N)cc1SC` [R^1=H, R^2=SCH3, R^3=OCH3, R^4=Br] was tested, and the pIC50 [1, 2] was 7.96, the “Aktivität in vitro (MIC) S. aureus Schoch.” value (S. aureus Schoch.) was 1,0 and the “Aktivität in vitro (MIC) E. coli 1346” value (E. coli 1346) was 0,2.
With `COc1cc(Cc2cnc(N)nc2N)cc(OC)c1SC` [R^1=H, R^2=OCH3, R^3=SCH3, R^4=OCH3, 2,4-Diamino-5-[3,5-dimethoxy-4-(methylthio)-benzyl]-pyrimidin] the pIC50 [1] was 8.46, the “Aktivität in vitro (MIC) S. aureus Schoch.” value (S. aureus Schoch.) was 0,4 and the “Aktivität in vitro (MIC) E. coli 1346” value (E. coli 1346) was 0,02.
For `CCSc1c(OC)cc(Cc2cnc(N)nc2N)cc1OC` [R^1=H, R^2=OCH3, R^3=SC2H5, R^4=OCH3, 2,4-Diamino-5-[4-(äthylthio)-3,5-dimethoxybenzyl]-pyrimidin], the pIC50 [1, 2] was 8.74, the “Aktivität in vitro (MIC) S. aureus Schoch.” value (S. aureus Schoch.) was 0,4 and the “Aktivität in vitro (MIC) E. coli 1346” value (E. coli 1346) was 0,04.
In the case of `CSc1cc(Cc2cnc(N)nc2N)cc(SC)c1-n1cccc1` [R^1=H, R^2=SCH3, R^3=[drawing], R^4=SCH3], the pIC50 [1, 2] was 8.28, the “Aktivität in vitro (MIC) S. aureus Schoch.” value (S. aureus Schoch.) was 4,0 and the “Aktivität in vitro (MIC) E. coli 1346” value (E. coli 1346) was over 1.
For `CSc1cc(C)c(Cc2cnc(N)nc2N)cc1SC` [R^1=CH3, R^2=H, R^3=SCH3, R^4=SCH3, 2,4-Diamino-5-[2-methyl-4,5-bis-(methylthio)-benzyl]-pyrimidin], the pIC50 [1] was 7.82, the “Aktivität in vitro (MIC) S. aureus Schoch.” value (S. aureus Schoch.) was 0,7 and the “Aktivität in vitro (MIC) E. coli 1346” value (E. coli 1346) was 0,7.
